For series [1] the following is noted: human, in vivo. On the procedure: A patient with chronic active Epstein-Barr virus disease and hemophagocytic lymphohistiocytosis presented with ceftriaxone-induced hemolytic anemia. The patient had been evaluated in the emergency department for fever and possible sepsis after recently receiving chemotherapy. In the emergency department they received a dose of ceftriaxone (50 mg/kg). The patient had received ceftriaxone on three previous occasions with no history of adverse reaction. Within an hour they developed back pain, tachycardia and tachypnea. Over the next three hours they developed worsening distress, failed continuous positive airway pressure and required endotracheal intubation with mechanical ventilation. They also experienced hypotension requiring fluid resuscitation and a continuous epinephrine infusion.
Four hours later, their hemoglobin had decreased to 6.1 g/dL, followed by a point-of-care hemoglobin of 5.1 g/dL. They received four packed red blood cell transfusions (each 10 mL/kg) within 72 hours, after which, their hemoglobin stabilized at their initial baseline (FIG. 1A). […] There were spherocytes on their peripheral blood smear as well as red blood cell aggregation. On admission, one day later, and five days later, their total bilirubin level was 1.5 mg/dL, 10.7 mg/dL, and 23.1 mg/dL respectively, with 90% being conjugated. […]

For series [2] the following is noted: patients frequently exposed to ceftriaxone; cited from earlier work.
Series [3] in a line: PIC1 administered to a patient with ceftriaxone-induced hemolysis (Example 2). The class given is in vivo, human. As for the experimental part: A patient is tested for possible hemolysis as a result of treatment with ceftriaxone. The patient has an erythrocyte hemoglobin level of 6.5 g/dL, a total bilirubin level of 12.4 mg/dL, and an LDH of 16,500. The patient receives packed red blood cell transfusion, and ceftriaxone is discontinued.
Four hours later, the patient has an erythrocyte hemoglobin level of 7.9 g/dL, a total bilirubin level of 8.4 mg/dL, and an LDH of 10,500, all of which show improvement. […] The bilirubin and LDH levels continue to improve. The patient receives additional packed red blood cell transfusions as needed.

In series [4] the test system is classical complement pathway. Particulars: 0.75 mM PIC1 and ceftriaxone together.
Procedure: The CHUHE assay utilizes human serum and human erythrocytes to measure complement-mediated hemolysis for the specific serum and specific erythrocytes that are co-incubated.
The patient's blood and sera were provided as discarded de-identified samples from residual specimens in the Blood Bank. […] Standard veronal complement buffers were utilized.
The modified CHUHE assay was performed as follows. The patient's sera (0.1 ml) was combined with ceftriaxone (10 μg/ml final concentration) in an ice-water bath for 30 minutes to enhance immune complex formation. This solution was then warmed to 24° C. […] Samples were incubated at 37° C. for one hour, with hemolysis stopped by the addition of 2.0 ml of GVBS-EDTA buffer (veronal-buffered saline with 0.1% gelatin and 10 mM EDTA). Erythrocytes were sedimented, and free hemoglobin was measured by spectrophotometry at 412 nm. Two independent experiments (n=2) were performed. Without wishing to be bound by theory, adaptation of the CHUHE hemolytic assay by adding exogenous ceftriaxone to the patient's serum and erythrocytes allowed for evaluation as to whether the hemolysis was ceftriaxone-initiated.

Where two headings read alike, the source gives them in different places. Ends that are not written are not given here.

On to `CO/N=C(\C(=O)N[C@@H]1C(=O)N2C(C(=O)O)=C(CSc3nc(=O)c(=O)[nH]n3C)CS[C@H]12)c1csc(N)n1` [ceftriaxone, reference compound], for which, in series [1], the total bilirubin level was determined as 23.1 mg/dL. Besides, the “patients developing anti-ceftriaxone antibodies” value in series [2] is 12.5%.

As to “IALILEPICCQERAA-dPEG24 (cysteine pairing not given here) [PIC1]”, the clinical outcome in series [3] (150 mg/kg PIC1, then daily dose for three days, with transfusions as needed) is “completely recovered from the hemolysis”. For the same compound, the total bilirubin level in series [3] (four hours after 150 mg/kg PIC1, 12.4 mg/dL before) came to 8.4 mg/dL. In series [3] (four hours after 150 mg/kg PIC1, 6.5 g/dL before), this compound showed an erythrocyte hemoglobin level of 7.9 g/dL. Moreover, the LDH in series [3] (four hours after 150 mg/kg PIC1, 16,500 before) is given as 10,500. In addition, in series [4], the “hemolysis relative to the no ceftriaxone control” value is “returned hemolysis to the level of the no ceftriaxone control”.

The record behind these values is patent US20210228695A1 (REALTA HOLDINGS, LLC, priority 2018, published 2021).
